From ChEMBL document CHEMBL4376806, “Antibiotic Adjuvants: Make Antibiotics Great Again!” (2019)

What was measured:
[1] = tested on: MexAB/OprM (Pseudomonas aeruginosa (strain ATCC 15692 / DSM 22644 / CIP 104116 / JCM14847 / LMG 12228 / 1C / PRS 101 / PAO1)), P52477+P52002+Q51487 [UNDEFINED MUTATION]; assay: Inhibition of MexAB/OprM nalB mutant in Pseudomonas aeruginosa PAO1 K1455 assessed as potentiation of cefotaxime-induced antibacterial activity by measuring cefotaxime MIC at 20 ug/ml incubated for 18 hrs by CLSI based broth microtitre dilution method (reference value: 64 ug/ml)
[2] = tested on: MexAB/OprM (Pseudomonas aeruginosa (strain ATCC 15692 / DSM 22644 / CIP 104116 / JCM14847 / LMG 12228 / 1C / PRS 101 / PAO1)), P52477+P52002+Q51487 [UNDEFINED MUTATION]; assay: Inhibition of MexAB/OprM nalB mutant in Pseudomonas aeruginosa PAO1 K1455 assessed as potentiation of rifampin-induced antibacterial activity by […] at 20 ug/ml incubated for 18 hrs by CLSI based broth microtitre dilution method (reference value: 16 ug/ml)
[3] = tested on: MexAB/OprM (Pseudomonas aeruginosa (strain ATCC 15692 / DSM 22644 / CIP 104116 / JCM14847 / LMG 12228 / 1C / PRS 101 / PAO1)), P52477+P52002+Q51487 [UNDEFINED MUTATION]; assay: Inhibition of MexAB/OprM nalB mutant in Pseudomonas aeruginosa PAO1 K1455 assessed as potentiation of novobiocin-induced antibacterial activity by measuring novobiocin MIC at 20 ug/ml incubated for 18 hrs by CLSI based broth microtitre dilution method (Rvb > 2048 ug/ml)
[4] = tested on: MexAB/OprM (Pseudomonas aeruginosa (strain ATCC 15692 / DSM 22644 / CIP 104116 / JCM14847 / LMG 12228 / 1C / PRS 101 / PAO1)), P52477+P52002+Q51487 [UNDEFINED MUTATION]; assay: Inhibition of MexAB/OprM nalB mutant in Pseudomonas aeruginosa PAO1 K1455 assessed as potentiation of erythromycin-induced antibacterial activity by measuring erythromycin MIC at 20 ug/ml incubated for 18 hrs by CLSI based broth microtitre dilution method (reference value: 256 ug/ml)
[5] = tested on: MexAB/OprM (Pseudomonas aeruginosa (strain ATCC 15692 / DSM 22644 / CIP 104116 / JCM14847 / LMG 12228 / 1C / PRS 101 / PAO1)), P52477+P52002+Q51487 [UNDEFINED MUTATION]; assay: Inhibition of MexAB/OprM nalB mutant in Pseudomonas aeruginosa PAO1 K1455 assessed as potentiation of tetracycline-induced antibacterial activity by measuring tetracycline MIC at 20 ug/ml incubated for 18 hrs by CLSI based broth microtitre dilution method (reference value: 64 ug/ml)
[6] = tested on: MexAB/OprM (Pseudomonas aeruginosa (strain ATCC 15692 / DSM 22644 / CIP 104116 / JCM14847 / LMG 12228 / 1C / PRS 101 / PAO1)), P52477+P52002+Q51487 [UNDEFINED MUTATION]; assay: Inhibition of MexAB/OprM nalB mutant in Pseudomonas aeruginosa PAO1 K1455 assessed as potentiation of levofloxacin-induced antibacterial activity by measuring levofloxacin MIC at 20 ug/ml incubated for 18 hrs by CLSI based broth microtitre dilution method (reference value: 2 ug/ml)
Streptococcus pyogenes [7] = assay: Synergistic antibacterial activity against Streptococcus pyogenes assessed as fractional inhibitory concentration index in presence of ampicillin by checkerboard assay; assay type: functional
Pseudomonas aeruginosa [8] = assay: Synergistic antibacterial activity against Pseudomonas aeruginosa assessed as fractional inhibitory concentration index in presence of ampicillin by checkerboard assay; assay type: functional
Staphylococcus aureus [9] = assay: Synergistic antibacterial activity against Staphylococcus aureus assessed as fractional inhibitory concentration index in presence of ampicillin by checkerboard assay; assay type: functional
Pseudomonas aeruginosa [10] = assay: Inhibition of beta-lactamase in Pseudomonas aeruginosa assessed as potentiation of ampicillin-induced antibacterial activity by measuring ampicillin MIC incubated for 24 hrs by CLSI method (Rvb >200 ug/ml)
Escherichia coli [11] = assay: Inhibition of beta-lactamase in Escherichia coli assessed as potentiation of ampicillin-induced antibacterial activity by measuring ampicillin MIC incubated for 24 hrs by CLSI method (reference value: 100 ug/ml)
Staphylococcus aureus [12] = assay: Inhibition of beta-lactamase in Staphylococcus aureus assessed as potentiation of ampicillin-induced antibacterial activity by measuring ampicillin MIC incubated for 24 hrs by CLSI method (Rvb > 200 ug/ml)
Streptococcus pyogenes [13] = assay: Inhibition of beta-lactamase in Streptococcus pyogenes assessed as potentiation of ampicillin-induced antibacterial activity by measuring ampicillin MIC incubated for 24 hrs by CLSI method (Rvb > 200 ug/ml)
[14] = target: Beta-lactamase CTX-M-27 (Escherichia coli) (UniProt Q840M4); assay: Inhibition of beta-lactamase CTX-M-27 in Escherichia coli (EC113) ST 131 assessed as potentiation of ampicillin-induced antibacterial activity by measuring ampicillin MIC at 10 ug/ml incubated for 18 hrs by CLSI based broth microtitre dilution method (Rvb >16 ug/ml)
[15] = target: Beta-lactamase CTX-M-27 (Escherichia coli) (UniProt Q840M4); assay: Inhibition of beta-lactamase CTX-M-27 in Escherichia coli (EC113) ST 131 assessed as potentiation of cefepime-induced antibacterial activity by measuring cefepime MIC at 10 ug/ml incubated for 18 hrs by CLSI based broth microtitre dilution method (Rvb >32 ug/ml)
[16] = target: Beta-lactamase CTX-M-27 (Escherichia coli) (UniProt Q840M4); assay: Inhibition of beta-lactamase CTX-M-27 in Escherichia coli (EC113) ST 131 assessed as potentiation of piperacillin-induced antibacterial activity by measuring piperacillin MIC at 10 ug/ml incubated for 18 hrs by CLSI based broth microtitre dilution method (Rvb >64 ug/ml)
[17] = target: Beta-lactamase CTX-M-27 (Escherichia coli) (UniProt Q840M4); assay: Inhibition of beta-lactamase CTX-M-27 in Escherichia coli (EC113) ST 131 assessed as potentiation of cefazolin-induced antibacterial activity by measuring cefazolin MIC at 10 ug/ml incubated for 18 hrs by CLSI based broth microtitre dilution method (Rvb >16 ug/ml)
[18] = target: Beta-lactamase CTX-M-27 (Escherichia coli) (UniProt Q840M4); assay: Inhibition of beta-lactamase CTX-M-27 in Escherichia coli (EC113) ST 131 assessed as potentiation of ceftriaxone-induced antibacterial activity by measuring ceftriaxone MIC at 10 ug/ml incubated for 18 hrs by CLSI based broth microtitre dilution method (Rvb >32 ug/ml)
[19] = target: Beta-lactamase CTX-M-27 (Escherichia coli) (UniProt Q840M4); assay: Inhibition of beta-lactamase CTX-M-27 in Escherichia coli (EC113) ST 131 assessed as potentiation of aztreonam-induced antibacterial activity by measuring aztreonam MIC at 10 ug/ml incubated for 18 hrs by CLSI based broth microtitre dilution method (Rvb >16 ug/ml)
[20] = target: Beta-lactamase CTX-M-27 (Escherichia coli) (UniProt Q840M4); assay: Inhibition of beta-lactamase CTX-M-27 in Escherichia coli (EC113) ST 131 assessed as potentiation of ceftazidime-induced antibacterial activity by measuring ceftazidime MIC at 10 ug/ml incubated for 18 hrs by CLSI based broth microtitre dilution method (reference value: 8 ug/ml)
Staphylococcus aureus [21] = assay: Potentiation of gentamicin-induced antibacterial activity against Staphylococcus aureus 358 assessed as gentamicin MIC at 64 ug/ml after 24 hrs by broth microdilution assay (reference value: 312.5 ug/ml); assay type: functional; details: Staphylococcus aureus, 358, 24 h
Escherichia coli [22] = assay: Potentiation of amikacin-induced antibacterial activity against Escherichia coli 27 assessed as amikacin MIC at 64 ug/ml after 24 hrs by broth microdilution assay (reference value: 156.2 ug/ml); assay type: functional; details: Escherichia coli, 27, 24 h
Escherichia coli [23] = assay: Potentiation of gentamicin-induced antibacterial activity against Escherichia coli 27 assessed as gentamicin MIC at 64 ug/ml after 24 hrs by broth microdilution assay (reference value: 625 ug/ml); assay type: functional; details: Escherichia coli, 27, 24 h
Staphylococcus aureus [24] = assay: Potentiation of amikacin-induced antibacterial activity against Staphylococcus aureus 358 assessed as amikacin MIC at 64 ug/ml after 24 hrs by broth microdilution assay (reference value: 156.2 ug/ml); assay type: functional; details: Staphylococcus aureus, 358, 24 h
Pseudomonas aeruginosa [25] = assay: Potentiation of gentamicin-induced antibacterial activity against Pseudomonas aeruginosa 03 assessed as gentamicin MIC at 32 ug/ml after 24 hrs by broth microdilution assay (reference value: 625 ug/ml); assay type: functional; details: Pseudomonas aeruginosa, 03, 24 h
Escherichia coli [26] = assay: Potentiation of neomycin-induced antibacterial activity against Escherichia coli 27 assessed as neomycin MIC at 64 ug/ml after 24 hrs by broth microdilution assay (reference value: 312.5 ug/ml); assay type: functional; details: Escherichia coli, 27, 24 h
Pseudomonas aeruginosa [27] = assay: Potentiation of amikacin-induced antibacterial activity against Pseudomonas aeruginosa 03 assessed as amikacin MIC at 32 ug/ml after 24 hrs by broth microdilution assay (reference value: 312.5 ug/ml); assay type: functional; details: Pseudomonas aeruginosa, 03, 24 h
Staphylococcus aureus [28] = assay: Potentiation of neomycin-induced antibacterial activity against Staphylococcus aureus 358 assessed as neomycin MIC at 64 ug/ml after 24 hrs by broth microdilution assay (reference value: 156.2 ug/ml); assay type: functional; details: Staphylococcus aureus, 358, 24 h
Klebsiella aerogenes [29] = assay: Inhibition of AcrAB-TolC in Enterobacter aerogenes EA3 assessed as potentiation of norfloxacin-induced antibacterial activity by measuring norfloxacin MIC at 0.2 mM incubated for 18 hrs (reference value: 256 ug/ml)
Klebsiella aerogenes [30] = assay: Inhibition of AcrAB-TolC in Enterobacter aerogenes EA3 assessed as potentiation of tetracycline-induced antibacterial activity by measuring tetracycline MIC at 0.2 mM incubated for 18 hrs (reference value: 8 ug/ml)
Klebsiella aerogenes [31] = assay: Inhibition of AcrAB-TolC in Enterobacter aerogenes EA3 assessed as potentiation of chloramphenicol-induced antibacterial activity by measuring chloramphenicol MIC at 0.2 mM incubated for 18 hrs (reference value: 512 ug/ml)

With `C[C@H]1[C@H]2CC[C@H]3[C@@H]4CC=C5C[C@@H](N(C)C)CC[C@]5(C)[C@H]4CC[C@]23CN1C` the MIC [1] was 8 µg/mL, the MIC [2] was 2 µg/mL and the MIC [3] was 256 µg/mL. It also gave an MIC [4] of 32 µg/mL, an MIC [5] of 8 µg/mL and an MIC [6] of 0.25 µg/mL.

`CC[C@H](/C=C/[C@@H](C)[C@H]1CC[C@H]2[C@@H]3CC=C4C[C@@H](O)CC[C@]4(C)[C@H]3CC[C@]12C)C(C)C` [STIGMASTEROL] was tested, and the “fractional inhibitory concentration index (FICI)” value (Streptococcus pyogenes [7]) was under 0.5, the “fractional inhibitory concentration index (FICI)” value (Pseudomonas aeruginosa [8]) was under 0.5 and the “fractional inhibitory concentration index (FICI)” value (Staphylococcus aureus [9]) was under 0.5. It also gave an MIC (Pseudomonas aeruginosa [10]) of 6.25 µg/mL, an MIC (Escherichia coli [11]) of 6.25 µg/mL and an MIC (Staphylococcus aureus [12]) of 3.13 µg/mL. It also gave an MIC (Streptococcus pyogenes [13]) of 1.56 µg/mL.

For `NCc1ccc(C(=O)N[C@H]2Cc3cccc(C(=O)O)c3O[B-]2(O)O)cc1`, the MIC [14] was under 8 µg/mL, the MIC [15] was under 4 µg/mL and the MIC [16] was under 16 µg/mL. It also gave an MIC [17] of 4 µg/mL, an MIC [18] of under 0.5 µg/mL and an MIC [19] of under 1 µg/mL. The MIC [20] was under 1 µg/mL.

`CC1=CC(=O)c2ccccc2C1=O` [MENADIONE] was tested, and the MIC (Staphylococcus aureus [21]) was 2.4 µg/mL, the MIC (Escherichia coli [22]) was 2.4 µg/mL and the MIC (Escherichia coli [23]) was 2.4 µg/mL. It also gave an MIC (Staphylococcus aureus [24]) of 2.4 µg/mL, an MIC (Pseudomonas aeruginosa [25]) of 2.4 µg/mL and an MIC (Escherichia coli [26]) of 2.4 µg/mL. The MIC (Pseudomonas aeruginosa [27]) was 2.4 µg/mL and the MIC (Staphylococcus aureus [28]) was 2.4 µg/mL.

In the case of `Cc1c([N+](=O)[O-])ccc2c(NCCN3CCCCC3)ccnc12`, the MIC (Klebsiella aerogenes [29]) was 16 µg/mL, the MIC (Klebsiella aerogenes [30]) was 0.5 µg/mL and the MIC (Klebsiella aerogenes [31]) was 2 µg/mL.
